Laboratory results: patent publication US7648985B2, “Oxabispidine compounds and their use in the treatment of cardiac arrhythmias” (AstraZeneca AB, priority 2004, dated 2010)

Target: T1, HERG channel (Homo sapiens, UniProt Q12809)
T1 construct: expressed in transfected cells
Assay: Test B: R^+-Efflux Assay for Detection of HERG Channel Blockers
Format: cell-based
Settings: depolarisation-induced Rb+ efflux from Chinese hamster ovary cells stably expressing the HERG-channel; read-out: pIC50 for HERG channel blockade (converted)
Protocol: The IC50 value for HERG channel blockade was determined using a high throughput functional assay based on depolarisation-induced R^+-efflux from Chinese hamster ovary cells stably expressing the HERG-channel.
Cells were grown in Ham F12 (Life Technologies 31765-027) supplemented with 10% FBS and 0.6 mg/mL hygromycin B and were routinely passaged twice-weekly. For experimental studies, cells were plated at a density of 15,000 cells/well in Falcon, 384-well tissue culture-treated black-walled clear-bottomed plates and were thereafter incubated overnight at 37° C. in a cell culture incubator.
Following incubating overnight, cell plates were washed and a Rb^+-Load buffer (a physiological buffer containing Rb^+) was added. Cell plates were then incubated for 3 hours and were thereafter washed. Following this wash, the test compounds were added. The cell plates were then incubated for another 10 minutes and, following this incubation period, external K^+ concentration was increased in order to depolarize the cells and activate HERG channels. After a ten minute exposure period to the increased K^+ concentration, supernatants were transferred to new microplates for subsequent determination of Rb^+ content, using Atomic Absorption Spectrometry analysis. […]
Compound activity was expressed as: […]

T1 sequence (Q12809 whole entry): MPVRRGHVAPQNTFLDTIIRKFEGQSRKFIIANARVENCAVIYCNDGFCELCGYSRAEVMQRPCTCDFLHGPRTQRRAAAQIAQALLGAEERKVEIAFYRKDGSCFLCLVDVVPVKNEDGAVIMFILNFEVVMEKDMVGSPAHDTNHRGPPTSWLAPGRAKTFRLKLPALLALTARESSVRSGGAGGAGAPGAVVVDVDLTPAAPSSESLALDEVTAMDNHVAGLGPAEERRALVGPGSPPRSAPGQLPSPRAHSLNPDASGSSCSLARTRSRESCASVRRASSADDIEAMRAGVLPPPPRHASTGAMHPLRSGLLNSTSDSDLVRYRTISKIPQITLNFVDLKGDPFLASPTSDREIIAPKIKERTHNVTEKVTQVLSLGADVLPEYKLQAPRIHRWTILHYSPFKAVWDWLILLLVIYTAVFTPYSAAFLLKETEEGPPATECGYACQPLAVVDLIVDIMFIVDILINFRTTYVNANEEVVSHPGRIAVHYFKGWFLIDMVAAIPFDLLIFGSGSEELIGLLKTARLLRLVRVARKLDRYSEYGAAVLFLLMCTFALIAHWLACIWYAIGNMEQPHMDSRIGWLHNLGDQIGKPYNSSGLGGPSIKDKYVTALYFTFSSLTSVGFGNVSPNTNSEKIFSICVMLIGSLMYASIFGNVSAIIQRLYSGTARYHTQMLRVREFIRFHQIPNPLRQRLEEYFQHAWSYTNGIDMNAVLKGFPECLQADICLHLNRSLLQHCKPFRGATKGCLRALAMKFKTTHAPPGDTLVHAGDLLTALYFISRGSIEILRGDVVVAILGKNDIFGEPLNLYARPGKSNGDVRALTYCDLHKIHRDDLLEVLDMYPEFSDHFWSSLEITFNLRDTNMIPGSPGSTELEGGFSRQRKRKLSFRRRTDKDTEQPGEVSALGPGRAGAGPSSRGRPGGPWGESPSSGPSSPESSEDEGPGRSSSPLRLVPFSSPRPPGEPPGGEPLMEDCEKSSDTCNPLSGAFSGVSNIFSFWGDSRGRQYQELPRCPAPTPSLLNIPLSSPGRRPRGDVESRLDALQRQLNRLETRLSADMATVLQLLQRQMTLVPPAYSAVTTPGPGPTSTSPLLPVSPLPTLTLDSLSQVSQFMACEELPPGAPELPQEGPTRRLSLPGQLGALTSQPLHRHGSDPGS

Cc1noc(C)c1S(=O)(=O)NCCN1CC2CN(CCOc3ccc(C#N)cc3)CC(C1)O2 [Example 9, N-(2-{7-[2-(4-cyanophenoxy)ethyl]-9-oxa-3,7-diazabicyclo[3.3.1]non-3-yl}ethyl)-3,5-dimethylisoxazole-4-sulfonamide]
IC50: 3.24 µM
